Article PMC6152416, “Pharmacological and Toxicological Screening of Novel Benzimidazole-Morpholine Derivatives as Dual-Acting Inhibitors” (Molecules : A Journal of Synthetic Chemistry and Natural …, 2017)
Where two headings read alike, the source gives them in different places.

Columns and labels:
AChE = AChE (Homo sapiens, UniProt P22303); type: biochemical
Procedure: Inhibition potency of the test compounds against AChE was determined using Ellman’s method. Enzyme solutions were prepared in gelatin solution (1%, w/v), at the concentration of 2.5 units/mL. […] AChE solution (20 µL/well) and test solution (20 µL/well) were added to phosphate buffer solution (140 µL/well, pH 8.0 ± 0.1), and incubated at 25 °C for 5 min. […] The production of the yellow anion was recorded by multimode microplate reader for 10 min at 412 nm. As a control, an identical solution of the enzyme without the inhibitor was processed. The control and the inhibitor readings were corrected with blank-readings. All processes were assayed in four independent determinations.

[1] = Ames MPF genotoxicity assay; type: cell-based, Salmonella typhimurium; settings: Salmonella typhimurium; TA100, with/without S9, each concentration level; read-out: fold inductions over baseline
Procedure: The genotoxicity of selected compounds (2b, 2j, 2m) was determined by Ames assay using Ames MPF 98/100 mutagenicity assay sample kit (Xenometrix AG, Allschwil, Switzerland) as previously described elsewhere. Salmonella typhimurium strains, TA98 (frameshift mutations) and TA100 (base-pair substitutions) were used in the assay. The concentration of the compounds was between 16 and 5000 μg/mL, in accordance with the guideline. Compounds were prepared in six different concentrations (5.0, 2.5, 1.25, 0.625, 0.3125, 0.156 mg/mL) in DMSO. Mutagenic potential was determined in the absence or presence of Aroclor™-1254 induced male Sprague–Dawley rat liver microsomal enzyme (S9) mix (Xenometrix AG). Positive controls without S9 mix were 2-nitrofluorene (2.0 μg/mL) and 4-nitroquinoline N-oxide (0.1 μg/mL), whereas 1.0 μg/mL and 2.5 μg/mL of 2-aminoanthracene solutions were used as positive controls with S9 against TA98 and TA100, respectively. Solvent control was prepared with 4% DMSO. The end of an experiment was determined by the change of the indicator medium colour to yellow, which was originating from the decrease of pH due to revertant bacteria. Yellow wells were counted as positive, and compared with the negative control. Fold induction over the negative control and fold induction over the baseline were calculated (Fold induction over the negative control is accepted as the ratio of the mean number of positive wells for the dose concentration divided by the mean number of positive wells for the zero dose (negative) control. Fold induction over the baseline is accepted as the ratio of the mean number of positive wells for the dose concentration divided by zero dose baseline. The zero-dose baseline is obtained by adding one standard deviation to the mean number of positive wells of the zero dose control. If the baseline is less than 1, the value is set to 1 for calculation).
Mutagenicity was determined according to the criteria reported previously. For a baseline value of ≤3, significant increases between 2 and 3-fold of the baseline were classified as weak mutagen, and increases ≥3-fold of the baseline were classified as mutagen. […] As a rule, at least two adjacent doses with significant increases or a significant increase at the highest dose level should be observed for a mutagenic compound. All of the doses were compared according to Student’s t-test at p < 0.05 for statistical significance.

Sequence of AChE (P22303 32-614): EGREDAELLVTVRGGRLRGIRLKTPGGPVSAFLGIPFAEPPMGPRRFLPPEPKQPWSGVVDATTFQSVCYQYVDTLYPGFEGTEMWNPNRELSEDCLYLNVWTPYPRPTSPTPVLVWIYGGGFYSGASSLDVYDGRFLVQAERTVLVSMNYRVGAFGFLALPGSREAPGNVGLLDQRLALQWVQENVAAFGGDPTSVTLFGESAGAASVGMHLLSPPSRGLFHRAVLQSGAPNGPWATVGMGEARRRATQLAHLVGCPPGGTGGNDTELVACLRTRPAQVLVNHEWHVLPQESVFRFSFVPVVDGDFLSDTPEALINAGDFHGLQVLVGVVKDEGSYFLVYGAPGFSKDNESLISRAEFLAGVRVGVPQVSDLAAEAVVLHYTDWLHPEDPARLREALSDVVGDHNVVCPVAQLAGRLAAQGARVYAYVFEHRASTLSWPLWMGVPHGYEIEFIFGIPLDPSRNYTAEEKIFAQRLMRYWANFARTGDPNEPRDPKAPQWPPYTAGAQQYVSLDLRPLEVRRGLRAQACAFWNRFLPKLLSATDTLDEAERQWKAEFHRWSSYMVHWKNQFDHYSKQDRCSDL

CCOc1ccc(-c2nc3ccccc3n2CCN2CCOCC2)cc1 [Compound 2j, 2-(4-Ethoxyphenyl)-1-[2-(morpholin-4-yl)ethyl]-1H-benzimidazole]
AChE Inhibition (%) (AChE; 10^-3 M): 7.20% | AChE Inhibition (%) (AChE; 10^-4 M): 7.20%

CC(C)c1ccc(-c2nc3ccccc3n2CCN2CCOCC2)cc1 [Compound 2e, 2-(4-Isopropylphenyl)-1-[2-(morpholin-4-yl)ethyl]-1H-benzimidazole]
AChE Inhibition (%) (AChE; 10^-3 M): 17.51% | AChE Inhibition (%) (AChE; 10^-4 M): 17.51%

COc1ccc(-c2nc3ccccc3n2CCN2CCOCC2)cc1 [Compound 2b, 2-(4-Methoxyphenyl)-1-[2-(morpholin-4-yl)ethyl]-1H-benzimidazole]
AChE Inhibition (%) (AChE; 10^-3 M): 5.19% | AChE Inhibition (%) (AChE; 10^-4 M): 5.19% | fold induction [1]: < 1.5

FC(F)(F)Oc1ccc(-c2nc3ccccc3n2CCN2CCOCC2)cc1 [Compound 2m, 2-(4-Trifluoromethoxyphenyl)-1-[2-(morpholin-4-yl)ethyl]-1H-benzimidazole]
AChE Inhibition (%) (AChE; 10^-3 M): 32.90% | AChE Inhibition (%) (AChE; 10^-4 M): 32.90% | fold induction [1]: < 1.5

Clc1ccc(-c2nc3ccccc3n2CCN2CCOCC2)cc1 [Compound 2c, 2-(4-Chlorophenyl)-1-[2-(morpholin-4-yl)ethyl]-1H-benzimidazole]
AChE Inhibition (%) (AChE; 10^-3 M): 5.48% | AChE Inhibition (%) (AChE; 10^-4 M): 5.48%
